In US9732094B2, “Arylquinazolines” (Merck Patent GmbH, priority 2013, dated 2017):
Read-outs that look alike come from different tables or passages of the source.

Tests used:
DNA-PK = DNA-PK (Homo sapiens (Human), UniProt P78527); assay: DNA-PK assay (biochemical), flashplate 33P-ATP kinase assay
Method: A) DNA-PK Assay (Biochemical)
The kinase assay was carried out in streptavidin-coated […] microtitre flashplates. […] The reaction was stopped using 50 μl/well of 200 mM EDTA. After incubation for a further 30 min at room temperature, the liquid was removed. Each well was washed three times with 100 μl of 0.9% saline solution. A nonspecific reaction (blank value) was determined using 10 μM of an innate kinase inhibitor. The radioactivity measurement was carried out using a TopCount. IC50 values were calculated in RS1.

[1] = target: DNA-PK phosphorylation at serine 2056 (Homo sapiens (Human), UniProt P78527); assay: DNA-PK phosphorylation at serine 2056 (cellular), bleomycin-treated HCT116 cells, ELISA; type: cell-based
Method: HCT116 cells were cultivated at 37° C. and 10% CO2 in MEM alpha medium with 10% of foetal calf serum and 2 mM glutamine. The cells were detached from the base of the culture vessels with the aid of trypsin/EDTA, centrifuged off in centrifuge tubes, taken up in fresh medium, and the cell density was determined. 100,000 cells were sown in 1 ml of culture medium per cavity of a 24-well cell culture plate and cultivated overnight. Next day, 10 μM bleomycin (DNA intercalator and inductor of DNA double-strand breaks) and test substances in fresh culture medium were added to the cells, and these were cultivated for a further six hours. […] The 96-well ELISA plates were subsequently treated with a detection antibody (Abcam ab79444: total DNA-PK) and a streptavidin-HRP conjugate. The development of the enzymatic reaction was carried out with the aid of a chemiluminescent reagent, the chemiluminescence was measured with the aid of a Mithras LB940. The signals with the phospho-DNA-PK-specific antibody were standardised to the signal with the antibody against the total protein DNA-PKc. […] The DMSO control was used as blank.

Kv11.1 (hERG) = Kv11.1 (hERG) (Homo sapiens (Human), UniProt Q12809); assay: Kv11.1 (hERG) ion channel activity (patch clamp assay), HEK293 cells transfected with hERG gene
Method: C) Kv11.1 (hERG) Ion Channel Activity (Patch Clamp Assay)
The patch-clamp measurement was carried out at room temperature in whole-cell configuration on human embryonic kidney cells (HEK293) which have been transfected in a stable manner with the hERG gene.
The whole-cell configurations were carried out using an automated patch clamp device (Patchliner™, Nanion Technologies, Munich). […] The glass chip has a hole of defined size to which the cell is transferred into the Gigaseal by application of a reduced pressure and brought into the whole-cell configuration. Buffer, cell suspension and test substances were added to microchannels of the chip using a Teflon-coated pipette. The cells were clamped to a holding potential of −80 mV. For measurement of substance-promoted inhibition of the Kv11.1 channel, the following voltage protocol was applied at 10-second intervals: 51 ms/−80 mV, 500 ms/+40 mV, 500 ms/−40 mV, 200 ms/−80 mV. The leakage current is subtracted by means of the P4 method. The cells were resuspended in extracellular buffer (EC) and applied to the chip. After the cell had been collected, the seal was improved by addition of a seal enhancer buffer. As soon as the whole-cell configuration had been reached, the seal enhancer buffer was washed out and replaced by extracellular buffer. The measurement started in EC for 1.5 min. DMSO (vehicle control, 0.1% of DMSO) was then applied, and the control current was recorded for 3 min. The test substance was subsequently added twice in the same concentration, and the potassium current was measured for 3.5 min in each case.
The reference substance used was the Kv11.1 (hERG) ion channel blocker quinidine. The effects of test substances and quinidine were standardised to the associated vehicle control. The effect on the Kv11.1 (hERG) channel activity was assessed from the potassium current at −40 mV. For the calculation, the current was evaluated for the respective final trace.
During the measurement, an aliquot of the test substance was taken for concentration determination. The sample was measured immediately by HPLC, and the final concentration was determined from a calibration curve.

[2] = Table 5, HCT116 cells, read-out: IC50 pDNA-PK
[3] = cellular, HCT116 cells, 10 μM bleomycin, six hours, read-out: IC50 pDNA-PK
[4] = read-out: Ki [Kv1.11 hERG], patch clamp, HEK293 transfected with hERG gene
[5] = Ki [Kv1.11 hERG], hERG patch clamp assay (cells without asterisk)
[6] = Ki [Kv1.11 hERG], patch clamp, HEK293 transfected with hERG gene
[7] = read-out: Ki [Kv1.11 hERG], Table 5

Sequence of Kv11.1 (hERG) (Q12809 whole entry): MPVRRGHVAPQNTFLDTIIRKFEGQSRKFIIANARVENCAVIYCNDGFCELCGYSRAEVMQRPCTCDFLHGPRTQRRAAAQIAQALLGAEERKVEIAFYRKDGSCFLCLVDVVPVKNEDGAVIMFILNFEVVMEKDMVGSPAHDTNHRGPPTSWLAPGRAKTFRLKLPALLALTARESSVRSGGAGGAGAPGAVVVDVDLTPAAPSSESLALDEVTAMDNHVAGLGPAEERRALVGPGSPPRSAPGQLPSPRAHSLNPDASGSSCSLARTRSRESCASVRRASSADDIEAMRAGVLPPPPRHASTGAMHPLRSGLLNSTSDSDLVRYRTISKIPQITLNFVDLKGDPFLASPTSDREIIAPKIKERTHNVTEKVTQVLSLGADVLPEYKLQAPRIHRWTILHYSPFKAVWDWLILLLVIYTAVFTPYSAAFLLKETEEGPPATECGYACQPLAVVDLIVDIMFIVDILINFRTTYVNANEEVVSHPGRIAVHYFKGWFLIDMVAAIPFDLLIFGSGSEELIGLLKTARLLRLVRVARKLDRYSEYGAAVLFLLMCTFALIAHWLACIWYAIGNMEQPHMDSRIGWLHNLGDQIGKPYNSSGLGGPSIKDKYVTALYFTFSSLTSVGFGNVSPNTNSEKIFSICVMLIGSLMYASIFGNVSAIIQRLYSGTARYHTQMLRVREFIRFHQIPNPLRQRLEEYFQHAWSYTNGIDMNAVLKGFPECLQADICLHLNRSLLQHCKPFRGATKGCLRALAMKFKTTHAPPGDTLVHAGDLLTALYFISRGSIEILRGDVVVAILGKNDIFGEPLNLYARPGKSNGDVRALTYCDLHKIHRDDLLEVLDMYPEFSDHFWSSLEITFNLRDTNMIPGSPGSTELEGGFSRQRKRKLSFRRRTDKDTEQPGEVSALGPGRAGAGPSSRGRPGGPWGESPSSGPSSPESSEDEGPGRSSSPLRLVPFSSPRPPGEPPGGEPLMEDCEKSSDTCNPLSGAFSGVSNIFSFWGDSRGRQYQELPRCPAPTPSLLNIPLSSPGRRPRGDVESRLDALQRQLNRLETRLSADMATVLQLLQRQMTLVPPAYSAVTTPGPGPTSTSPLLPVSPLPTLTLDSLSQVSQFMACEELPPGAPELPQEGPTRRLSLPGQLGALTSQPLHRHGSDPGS

With `OC(c1ccc(F)c(-c2ncnc3cc(N4CCOCC4)sc23)c1)c1nccs1` (racemic) [Example 144, [4-fluoro-3-(6-morpholin-4-ylthieno[3,2-d]pyrimidin-4-yl)phenyl]thiazol-2-ylmethanol] the IC50 (DNA-PK; Table 5) was < 0.003 µM, the IC50 [1, 2] was 0.5 to 5 µM and the Ki (Kv11.1 (hERG); human, HEK293 cells stably transfected with the hERG gene, Ki [Kv1.11 hERG], Table 5) was 15 to 25 µM.
For `OC(c1ccc2nccn2n1)c1cc(-c2ncnc3cc(N4CCOCC4)ccc23)c(F)cc1F` (single isomer, unassigned) [Example 20, [2,4-Difluoro-5-(7-morpholin-4-yl-quinazolin-4-yl)phenyl]-imidazo[1,2-b]pyridazin-6-ylmethanol], the IC50 (DNA-PK; enzymatic, 5 μM ATP) was 0.007 to 0.03 µM, the IC50 [1, 3] was 5 to 10 µM and the Ki (Kv11.1 (hERG); [4]) was > 25 µM.
`OC(c1ccc2nccn2n1)c1cc(-c2ncnc3cc(N4CCOCC4)ccc23)c(F)cc1F` (single isomer, unassigned) [Example 21, [2,4-Difluoro-5-(7-morpholin-4-yl-quinazolin-4-yl)phenyl]-imidazo[1,2-b]pyridazin-6-ylmethanol] was tested, and the IC50 (DNA-PK; enzymatic, 5 μM ATP) was < 0.003 µM, the IC50 [1, 3] was < 0.5 µM and the Ki (Kv11.1 (hERG); [4]) was > 25 µM.
With `OC(c1ccc(F)c(-c2ncnc3cc(N4CCOCC4)sc23)c1)c1nccnc1Cl` (single isomer, unassigned) [Example 23, (3-Chloro-pyrazin-2-yl)-[4-fluoro-3-(6-morpholin-4-yl-thieno-[3,2-d}pyrimidin-4-yl)-phenyl]methanol] the IC50 (DNA-PK; enzymatic, 5 μM ATP) was 0.007 to 0.03 µM, the IC50 [1, 3] was 5 to 10 µM and the Ki (Kv11.1 (hERG); [4]) was > 25 µM.
With `[2H]C1([2H])OC([2H])([2H])C([2H])([2H])N(c2ccc3c(-c4cc(C(O)c5ccc(OC)nn5)c(Cl)cc4F)ncnc3c2)C1([2H])[2H]` (single isomer, unassigned) [Example 239, [2-Chloro-4-fluoro-5-[7-(2,2.3,3,5,5,6,6-octadeuteriomorpholin-4-yl)quinazolin-4-yl]phenyl]-(6-methoxypyridazin-3-yl)methanol] the Ki (Kv11.1 (hERG); [5]) was 15 to 25 µM.
In the case of `OC(c1ccc(OC2COC2)nn1)c1cc(-c2ncnc3cc(N4CCOCC4)ccc23)c(F)cc1Cl` (stereo not shown) [Example 100, [2-Chloro-4-fluoro-5-(7-morpholin-4-yl-quinazolin-4-yl)-phenyl]-[6-(oxetan-3-yloxy)pyridazin-3-yl)-methanol], the IC50 [1, 3] is reported as < 0.5 µM and the Ki (Kv11.1 (hERG); [6]) is reported as 10 to 15 µM.
With `COc1ccc(C(O)c2cc(-c3ncnc4cc(N5CCOCC5)ccc34)c(F)cc2F)nn1` (stereo not shown) [Example 131, [2,4-Difluoro-5-(7-morpholin-4-yl-quinazolin-4-yl)-phenyl]-(6-methoxy-pyridazin-3-yl)-methanol] the Ki (Kv11.1 (hERG); [6]) was 15 to 25 µM.
For `COc1ccc([C@H](O)c2cc(-c3ncnc4cc(N5CCOCC5)ccc34)c(F)cc2Cl)nn1` [Example 135, (R)-[2-Chloro-4-fluoro-5-(7-morpholin-4-yl-quinazolin-4-yl)-phenyl]-(6-methoxy-pyridazin-3-yl)-methanol], the Ki (Kv11.1 (hERG); [4]) was > 25 µM.
With `COc1ccc([C@@H](O)c2cc(-c3ncnc4cc(N5CCOCC5)ccc34)c(F)cc2Cl)nn1` [Example 136, (S)-[2-Chloro-4-fluoro-5-(7-morpholin-4-yl-quinazolin-4-yl)-phenyl]-(6-methoxy-pyridazin-3-yl)-methanol] the Ki (Kv11.1 (hERG); [4]) was > 25 µM.
`COc1ccc(C(O)c2cc(-c3ncnc4cc(N5CCOCC5)ccc34)c(F)cc2Cl)nn1` (stereo not shown) [Example 137, [2-Chloro-4-fluoro-5-(7-morpholin-4-ylquinazolin-4-yl)-phenyl]-(6-methoxy-pyridazin-3-yl)-methanol] gave a Ki (Kv11.1 (hERG); [6]) of 10 to 15 µM.
In the case of `CC(O)(c1cncc(-c2ncnc3cc(N4CCOCC4)ccc23)c1)c1nccs1` (stereo not shown) [Example 138, 1-[5-(7-Morpholin-4-ylquinazolin-4-yl)-pyridin-3-yl]-1-thiazol-2-ylethanol], the IC50 (DNA-PK; Table 5) is reported as > 0.03 µM and the Ki (Kv11.1 (hERG); Ki [Kv1.11 hERG], Table 5) is reported as 15 to 25 µM.
`OC(c1ccc(F)c(-c2ncnc3cc(N4CCOCC4)sc23)c1)c1nccs1` (stereo not shown) [Example 145, [4-fluoro-3-(6-morpholin-4-ylthieno[3,2-d]pyrimidin-4-yl)phenyl]thiazol-2-ylmethanol] was tested, and the IC50 [1, 2] was 0.5 to 5 µM and the Ki (Kv11.1 (hERG); [7]) was > 25 µM.
Work on `OC(c1ccc(-c2ncnc3cc(N4CCOCC4)ccc23)s1)c1nccs1` (stereo not shown) [Example 147, [5-(7-Morpholin-4-ylquinazolin-4-yl)-thiophen-2-yl]-thiazol-2-ylmethanol] yielded a Ki (Kv11.1 (hERG); Ki [Kv1.11 hERG], Table 5) of 10 to 15 µM.
In the case of `OC(c1cccc(-c2ncnc3cc(N4CCOCC4)ccc23)c1)c1nccs1` (stereo not shown) [Example 149, [3-(7-Morpholin-4-ylquinazolin-4-yl)-phenyl]thiazol-2-yl-methanol], the IC50 (DNA-PK; Table 5) is reported as > 0.03 µM and the Ki (Kv11.1 (hERG); [7]) is reported as > 25 µM.
In the case of `CC(O)(c1cccc(-c2ncnc3cc(N4CCOCC4)ccc23)c1)c1nccs1` (stereo not shown) [Example 154, 1-[3-(7-Morpholin-4-ylquinazolin-4-yl)-phenyl]-1-thiazol-2-ylethanol], the IC50 (DNA-PK; Table 5) is reported as > 0.03 µM and the Ki (Kv11.1 (hERG); Ki [Kv1.11 hERG], Table 5) is reported as 15 to 25 µM.
In the case of `OCc1csc(C(O)c2cc(-c3ncnc4cc(N5C6CCC5COC6)ccc34)c(F)cc2Cl)n1` (stereo not shown) [Example 187, {2-Chloro-4-fluoro-5-[7-(3-oxa-8-aza-bicyclo[3.2.1]oct-8-yl)quinazolin-4-yl]-phenyl}-(4-hydroxy-methylthiazol-2-yl)-methanol], the IC50 ([1]; IC50 pDNA-PK, Table 5, HCT116 cells) is reported as 10 to 30 µM and the Ki (Kv11.1 (hERG); Ki [Kv1.11 hERG], Table 5) is reported as 15 to 25 µM.
With `Cc1nc(C(O)c2cc(-c3ncnc4cc(N5CCOCC5)ncc34)cnc2F)sc1C` (stereo not shown) [Example 192, (4,5-Dimethyl-thiazol-2-yl)-[2-fluoro-5-(7-morpholin-4-yl-pyrido[4,3-d}-pyrimidin-4-yl)-pyridin-3-yl]-methanol] the IC50 (DNA-PK; Table 5) was > 0.03 µM and the Ki (Kv11.1 (hERG); Ki [Kv1.11 hERG], Table 5) was 10 to 15 µM.
`Cc1nc(C(O)c2cc(-c3ncnc4cc(N5CCOCC5)ccc34)cnc2F)sc1C` (stereo not shown) [Example 194, (4,5-Dimethyl-thiazol-2-yl)-[2-fluoro-5-(7-morpholin-4-yl-quinazolin-4-yl)-pyridin-3-yl]-methanol] was tested, and the IC50 (DNA-PK; Table 5) was 0.007 to 0.03 µM and the Ki (Kv11.1 (hERG); [7]) was > 25 µM.
For `Cc1csc(C(O)c2cnc(F)c(-c3ncnc4cc(N5CCOCC5)ncc34)c2)n1` (stereo not shown) [Example 195, [6-Fluoro-5-(7-morpholin-4-yl-pyrido[4,3-d}-pyrimidin-4-yl)-pyridin-3-yl]-(4-methyl-thiazol-2-yl)-methanol], the IC50 (DNA-PK; Table 5) was > 0.03 µM and the Ki (Kv11.1 (hERG); Ki [Kv1.11 hERG], Table 5) was 15 to 25 µM.
In the case of `CC(C)(C)n1cc(C(O)c2cc(-c3ncnc4cc(N5CCOCC5)ccc34)cnc2F)cn1` (stereo not shown) [Example 198, (1-tert-Butyl-1H-pyrazol-4-yl)-[2-fluoro-5-(7-morpholin-4-yl-quinazolin-4-yl)-pyridin-3-yl]-methanol], the IC50 (DNA-PK; Table 5) is reported as 0.007 to 0.03 µM and the Ki (Kv11.1 (hERG); [7]) is reported as > 25 µM.
For `Cc1nc(C(O)c2cc(-c3ncnc4cc(N5CCOCC5)ccc34)cnc2F)sc1C` (stereo not shown) [Example 206, (4,5-Dimethyl-thiazol-2-yl)-[2-fluoro-5-(7-morpholin-4-yl-quinazolin-4-yl)-pyridin-3-yl]-methanol], the IC50 (DNA-PK; Table 5) was > 0.03 µM and the Ki (Kv11.1 (hERG); Ki [Kv1.11 hERG], Table 5) was 15 to 25 µM.
`[2H]c1c(N2CCOCC2)cc2ncnc(-c3cc(C(O)c4ccc(OC)nn4)c(Cl)cc3F)c2c1[2H]` (stereo not shown) [Example 225, [2-Chloro-5-(5,6-dideuterio-7-morpholinylquinazolin-4-yl)-4-fluorophenyl]-(6-methoxypyridazin-3-yl)methanol] was tested, and the Ki (Kv11.1 (hERG); [5]) was > 25 µM.
For `NC(=O)C(c1cc(-c2ncnc3cc(N4CCOCC4)ccc23)c(F)cc1Cl)c1ncnn2cccc12` (stereo not shown) [Example 309, 2-[2-Chloro-4-fluoro-5-(7-morpholin-4-yl-quinazolin-4-yl)-phenyl]-2-[3H-pyrrolo[2,1-f][1,2,4]-triazin-(4E)-ylidene]-acetamide], the IC50 ([1]; cellular DNA-PK phosphorylation at serine 2056, HCT116, read-out: IC50 pDNA-PK) was 10 to 30 µM and the Ki (Kv11.1 (hERG); read-out: Ki [Kv1.11 hERG], hERG patch clamp assay (cells without asterisk)) was < 10 µM.
